Source: patent publication US8466199B2, “Allyloxy and alkyloxy benzoic acid delivery agents” (Emisphere Technologies, Inc., priority 2007, dated 2013)

Columns and labels:
[1] = test system: fasted male Sprague-Dawley rats; experiment: Oral delivery of insulin to male Sprague-Dawley rats (blood glucose by glucometer, compared to vehicle control); assay type: in vivo, rat; details: oral gavage, 200 mg/kg delivery agent + 0.5 mg/kg insulin, C minimum over 0-60 min, average of experiments
Description: Insulin stock solution (15 mg/ml) (Human zinc insulin, Calbiochem-Novabiochem Corp., La Jolla, Calif.) was prepared with deionized water. Oral dosing compositions containing 200 mg/kg of a delivery agent compound of the present invention and 0.5 mg/kg of insulin in an aqueous solution were prepared for the compounds prepared in Examples 2-24.
(§1) One ml of the dosing solution was administered to fasted male Sprague-Dawley rats by oral gavage with an average weight of about 225-250 grams Blood glucose levels were then determined by glucometer (One Touch Ultra®, LifeScan, Inc.) and compared to vehicle control (1 ml/kg of water). Samples were collected prior to dosing (time 0) and at 15, 30, 45 and 60 minutes after dosing. The % glucose reduction is shown below in Table 1. The values correspond to the C minimum, and are an average % reduction with respect to the number of times the experiment was run for each delivery agent.
The solutions were administered to fasted male Sprague-Dawley rats and the % glucose reduction was determined in the same manner as described above.
as §1, with “Insulin stock solution (15 mg/ml) (Human zinc insulin, Calbiochem-Novabiochem Corp., La Jolla, Calif.) was prepared with deionized water. Oral dosing compositions containing 200 mg/kg of a delivery agent compound of the present invention and 0.5 mg/kg of insulin in an aqueous solution were prepared for the compounds prepared in Examples 27-34. One ml” for “One ml”, “about 225-250 grams. Blood glucose” for “about 225-250 grams Blood glucose”, “in Table 3. The values” for “in Table 1. The values”
as §1, with “Insulin stock solution (15 mg/ml) (Human zinc insulin, Calbiochem-Novabiochem Corp., La Jolla, Calif.) was prepared with deionized water. Oral dosing compositions containing 200 mg/kg of a delivery agent compound of the present invention and 0.5 mg/kg of insulin in an aqueous solution were prepared for the compounds prepared in Examples 37-49. One ml” for “One ml”, “about 225-250 grams. Blood glucose” for “about 225-250 grams Blood glucose”, “in Table 5. The values” for “in Table 1. The values”

[2] = test system: fasted male Sprague-Dawley rats; experiment: as above; assay type: in vivo, rat
[3] = Table 2, Insulin Dose 0 mg/kg, Carrier Dose 200 mg/kg
[4] = Table 2, Insulin Dose 0.25 mg/kg, Carrier Dose 200 mg/kg

Structure (SMILES): C=CCOc1ccc(C(=O)O)cc1 [Compound 2, 4-Allyloxy-benzoic acid]
- Glucose (Absolute change from Control) ([1]; Table 1, aqueous solution): −42.4%

Structure (SMILES): C=CCOc1cccc(C)c1C(=O)O [Compound 14, 2-Allyloxy-6-methyl-benzoic acid]
- Glucose (Absolute change from Control) ([1]; Table 1, aqueous solution): −14.4%

Structure (SMILES): CC(C)=CCOc1ccc(C(=O)O)cc1 [Compound 9, 4-(3-Methyl-but-2-enyloxy)-benzoic acid]
- Glucose (Absolute change from Control) ([1]; Table 1, aqueous solution): −27.8%

Structure (SMILES): C=C(C)COc1cccc(C(=O)O)c1 [Compound 21, 3-(2-Methyl-allyloxy)-benzoic acid]
- Glucose (Absolute change from Control) ([1]; Table 1, aqueous solution): −27.4%

Structure (SMILES): CC(C)=CCOc1ccccc1C(=O)O [Compound 7, 2-(3-Methyl-but-2-enyloxy)-benzoic acid]
- Glucose (Absolute change from Control) ([1]; Table 1, aqueous solution): −38.8%

Structure (SMILES): CCCOCc1ccc(C(=O)O)cc1 [Compound 41, 4-Propoxymethyl-benzoic acid]
- Glucose (Absolute change from Control) ([1]; Table 5): −19.2%

Structure (SMILES): C=CCOc1ccc(OC)cc1C(=O)O [Compound 10, 2-Allyloxy-5-methoxy-benzoic acid]
- Glucose (Absolute change from Control) ([1]; Table 1, aqueous solution): −27.2%

Structure (SMILES): C=CCOc1cc(OC)ccc1C(=O)O [Compound 11, 2-Allyloxy-4-methoxy-benzoic acid]
- Glucose (Absolute change from Control) ([1]; Table 1, aqueous solution): −24.0%

Structure (SMILES): C=CCCOc1cccc(C(=O)O)c1 [Compound 5, 3-But-3-enyloxy-benzoic acid]
- Glucose (Absolute change from Control) [2, 3]: −6.3%
- Glucose (Absolute change from Control) [2, 4]: −5.4%
- Glucose (Absolute change from Control) ([1]; Table 1, aqueous solution): −40.8%

Structure (SMILES): C=CCOc1cc(C(=O)O)ccc1OC [Compound 22, 3-Allyloxy-4-methoxy-benzoic acid]
- Glucose (Absolute change from Control) ([1]; Table 1, aqueous solution): −10.2%

Structure (SMILES): CCCOc1ccc(C(=O)O)cc1 [Compound 25, 4-Propoxy-benzoic acid]
- Glucose (Absolute change from Control) ([1]; Table 3): −25.5%

Structure (SMILES): C=CCOc1cc(OCCO)ccc1C(=O)O [Compound 16, 2-Allyloxy-4-(2-hydroxy-ethoxy)-benzoic acid]
- Glucose (Absolute change from Control) ([1]; Table 1, aqueous solution): −4.6%

Structure (SMILES): CC(C)OCc1cccc(C(=O)O)c1 [Compound 43, 3-Isopropoxymethyl-benzoic acid]
- Glucose (Absolute change from Control) ([1]; Table 5): −29.3%

Structure (SMILES): CC(C)=CCOc1cccc(C(=O)O)c1 [Compound 8, 3-(3-Methyl-but-2-enyloxy)-benzoic acid]
- Glucose (Absolute change from Control) ([1]; Table 1, aqueous solution): −31.6%

Structure (SMILES): C=CCCOc1ccc(C(=O)O)cc1 [Compound 4, 4-But-3-enyloxy-benzoic acid]
- Glucose (Absolute change from Control) [2, 3]: 8.8%
- Glucose (Absolute change from Control) [2, 4]: −11.4%
- Glucose (Absolute change from Control) ([1]; Table 1, aqueous solution): −41.6%

Structure (SMILES): C=CCCOCc1ccc(C(=O)O)cc1 [Compound 33, 4-But-3-enyloxymethyl-benzoic acid]
- Glucose (Absolute change from Control) ([1]; Table 5): −38.5%

Structure (SMILES): C=C(C)COCc1ccc(C(=O)O)cc1 [Compound 35, 4-(2-Methyl-allyloxymethyl)-benzoic acid]
- Glucose (Absolute change from Control) ([1]; Table 5): −16.0%

Structure (SMILES): CC(C)COc1cccc(C(=O)O)c1 [Compound 31, 3-Isobutoxy-benzoic acid]
- Glucose (Absolute change from Control) ([1]; Table 3): −9.5%

Structure (SMILES): C=C(C)COc1ccc(C(=O)O)cc1 [Compound 20, 4-(2-Methyl-allyloxy)-benzoic acid]
- Glucose (Absolute change from Control) ([1]; Table 1, aqueous solution): −51.1%

Structure (SMILES): CC(C)COc1ccc(C(=O)O)cc1 [Compound 30, 4-Isobutoxy-benzoic acid]
- Glucose (Absolute change from Control) ([1]; Table 3): −29.8%

Structure (SMILES): C=CCOc1c(OC)cccc1C(=O)O [Compound 12, 2-Allyloxy-3-methoxy-benzoic acid]
- Glucose (Absolute change from Control) ([1]; Table 1, aqueous solution): −13.5%

Structure (SMILES): C=CCOc1ccc(C)cc1C(=O)O [Compound 13, 2-Allyloxy-5-methyl-benzoic acid]
- Glucose (Absolute change from Control) ([1]; Table 1, aqueous solution): −30.7%

Structure (SMILES): C=C(C)COc1ccccc1C(=O)O [Compound 15, 2-(2-Methyl-allyloxy)-benzoic acid]
- Glucose (Absolute change from Control) ([1]; Table 1, aqueous solution): −37.4%

Structure (SMILES): C=C(C)COc1cc(C(=O)O)ccc1OC [Compound 23, 4-Methoxy-3-(2-methyl-allyloxy)-benzoic acid]
- Glucose (Absolute change from Control) ([1]; Table 1, aqueous solution): −8.4%

Structure (SMILES): CCCCOc1ccccc1C(=O)O [Compound 29, 2-Butoxy-benzoic acid]
- Glucose (Absolute change from Control) ([1]; Table 3): −34.9%

Structure (SMILES): C=CCOc1ccccc1C(=O)O [Compound 1, 2-Allyloxy-benzoic acid]
- Glucose (Absolute change from Control) [2, 3]: −12.5%
- Glucose (Absolute change from Control) ([2]; Table 2, Insulin Dose 0.25 mg/kg, Carrier Dose 100 mg/kg): −17.9%
- Glucose (Absolute change from Control) [2, 4]: 3.0%
- Glucose (Absolute change from Control) ([1]; Table 1, aqueous solution): −35.1%

Structure (SMILES): C=CCOCc1ccc(C(=O)O)cc1 [Compound 32, 4-Allyloxymethyl-benzoic acid]
- Glucose (Absolute change from Control) ([1]; Table 5): −19.5%

Structure (SMILES): C=CC(C)OCc1ccc(C(=O)O)cc1 (centres unmarked) [Compound 34, 4-(1-Methyl-allyloxymethyl)-benzoic acid]
- Glucose (Absolute change from Control) ([1]; Table 5): −16.6%

Structure (SMILES): CCCCOc1ccc(C(=O)O)cc1 [Compound 28, 4-Butoxy-benzoic acid]
- Glucose (Absolute change from Control) ([1]; Table 3): −22.3%

Structure (SMILES): C=CCCOc1ccccc1C(=O)O [Compound 3, 2-But-3-enyloxy-benzoic acid]
- Glucose (Absolute change from Control) ([1]; Table 1, aqueous solution): −25.5%

Structure (SMILES): C=CCOc1cccc(C(=O)O)c1 [Compound 6, 3-Allyloxy-benzoic acid]
- Glucose (Absolute change from Control) [2, 3]: −10.7%
- Glucose (Absolute change from Control) [2, 4]: −18.2%
- Glucose (Absolute change from Control) ([1]; Table 1, aqueous solution): −42.8%

Structure (SMILES): C=CCOc1ccc(Cl)cc1C(=O)O [Compound 19, 2-Allyloxy-5-chloro-benzoic acid]
- Glucose (Absolute change from Control) ([1]; Table 1, aqueous solution): −21.5%

Structure (SMILES): C=CCOCc1cccc(C(=O)O)c1 [Compound 38, 3-Allyloxymethyl-benzoic acid]
- Glucose (Absolute change from Control) ([1]; Table 5): −13.1%

Structure (SMILES): CC(C)OCc1ccc(C(=O)O)cc1 [Compound 40, 4-Isopropoxymethyl-benzoic acid]
- Glucose (Absolute change from Control) ([1]; Table 5): −31.9%

Structure (SMILES): CCCCOc1cccc(C(=O)O)c1 [Compound 27, 3-Butoxy-benzoic acid]
- Glucose (Absolute change from Control) ([1]; Table 3): −23.9%

Structure (SMILES): CCCOc1cccc(C(=O)O)c1 [Compound 24, 3-Propoxy-benzoic acid]
- Glucose (Absolute change from Control) ([1]; Table 3): −15.2%

Structure (SMILES): CCOCc1cccc(C(=O)O)c1 [Compound 42, 3-Ethoxymethyl-benzoic acid]
- Glucose (Absolute change from Control) ([1]; Table 5): −11.3%

Structure (SMILES): CCOCc1ccc(C(=O)O)cc1 [Compound 39, 4-Ethoxymethyl-benzoic acid]
- Glucose (Absolute change from Control) ([1]; Table 5): −1.9%

Structure (SMILES): C=CCCOCc1cccc(C(=O)O)c1 [Compound 36, 3-But-3-enyloxymethyl-benzoic acid]
- Glucose (Absolute change from Control) ([1]; Table 5): −20.7%

Structure (SMILES): CCCOc1ccccc1C(=O)O [Compound 26, 2-Propoxy-benzoic acid]
- Glucose (Absolute change from Control) ([1]; Table 3): −14.2%

Structure (SMILES): C=C(C)COCc1cccc(C(=O)O)c1 [Compound 37, 3-(2-Methyl-allyloxymethyl)-benzoic acid]
- Glucose (Absolute change from Control) ([1]; Table 5): −8.4%

Structure (SMILES): C=CCOc1ccc(C(C)=O)cc1C(=O)O [Compound 17, 5-Acetyl-2-allyloxy-benzoic acid]
- Glucose (Absolute change from Control) ([1]; Table 1, aqueous solution): 0.6%

Structure (SMILES): C=CCOc1ccc(Br)cc1C(=O)O [Compound 18, 2-Allyloxy-5-bromo-benzoic acid]
- Glucose (Absolute change from Control) ([1]; Table 1, aqueous solution): −5.0%

Structure (SMILES): CCCOCc1cccc(C(=O)O)c1 [Compound 44, 3-Propoxymethyl-benzoic acid]
- Glucose (Absolute change from Control) ([1]; Table 5): −20.8%
